In ChEMBL document CHEMBL1140049, “Bioisosteric replacement of the pyrazole 5-aryl moiety of N-(piperidin-1-yl)-5-(4-chlorophenyl)-1-(2,4-dichlorophenyl)-4-methyl-1H-pyrazole-3-carboxamide (SR141716A). A novel series of alkynylthiophenes as potent and selective cannabinoid-1 receptor antagonists” (J Med Chem, 2008):
The source made the active and inactive calls. No cut-off for these calls is given here.

Tests used:
HEK293 = test: Selectivity ratio of IC50 for human CB2 receptor to human CB1 receptor expressed in HEK293 cells; format: cell-based
Cannabinoid receptor 2 = Cannabinoid receptor 2 (Homo sapiens, UniProt P34972); test: Displacement of [3H]CP-55940 from human CB2 receptor expressed in HEK293 cells; format: cell-based
Cannabinoid receptor 1 [1] = target: T1, Cannabinoid receptor 1 (Homo sapiens, UniProt P21554); test: biochemical; format: cell-based, HEK293
Description: Displacement of [3H]CP-55940 from human CB1 receptor expressed in HEK293 cells

Cannabinoid receptor 1 [2] = target: T1, Cannabinoid receptor 1; test: Antagonist activity at human CB1 receptor expressed in HEK293 cells assessed as inhibition of Eu-GTP binding; format: cell-based
Cannabinoid receptor 1 [3] = target: T1, Cannabinoid receptor 1; test: Antagonist activity at human CB1 receptor expressed in HEK293 cells assessed as effect on [35S]gammaGTP binding relative to control; format: cell-based
Cannabinoid receptor 1 [4] = target: T1, Cannabinoid receptor 1; test: Displacement of [3H]SR141716A from human CB1 receptor expressed in HEK293 cells; format: cell-based
Mus musculus = test: Decrease in body weight in DIO C57BL/6 mouse model at 10 mg/kg, po qd for 21 days
Cannabinoid receptor 1 [5] = target: T1, Cannabinoid receptor 1; test: Agonist activity at human CB1 receptor expressed in HEK293 cells assessed as increase in [35S]gammaGTP binding relative to control; format: cell-based

T1 sequence (P21554 whole entry): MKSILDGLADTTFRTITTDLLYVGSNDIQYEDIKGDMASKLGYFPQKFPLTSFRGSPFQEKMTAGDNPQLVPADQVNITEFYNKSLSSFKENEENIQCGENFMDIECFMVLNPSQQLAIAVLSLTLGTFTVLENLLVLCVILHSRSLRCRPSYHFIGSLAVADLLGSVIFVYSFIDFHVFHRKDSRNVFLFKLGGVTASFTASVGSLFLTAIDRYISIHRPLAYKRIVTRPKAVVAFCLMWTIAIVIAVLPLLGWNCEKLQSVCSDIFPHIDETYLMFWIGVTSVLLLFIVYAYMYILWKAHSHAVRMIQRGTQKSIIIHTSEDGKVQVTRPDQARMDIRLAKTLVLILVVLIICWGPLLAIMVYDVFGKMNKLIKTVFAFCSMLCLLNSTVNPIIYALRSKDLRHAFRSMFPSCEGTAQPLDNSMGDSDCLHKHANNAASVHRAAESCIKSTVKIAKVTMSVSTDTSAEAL
Sequence of Cannabinoid receptor 2 (P34972 whole entry): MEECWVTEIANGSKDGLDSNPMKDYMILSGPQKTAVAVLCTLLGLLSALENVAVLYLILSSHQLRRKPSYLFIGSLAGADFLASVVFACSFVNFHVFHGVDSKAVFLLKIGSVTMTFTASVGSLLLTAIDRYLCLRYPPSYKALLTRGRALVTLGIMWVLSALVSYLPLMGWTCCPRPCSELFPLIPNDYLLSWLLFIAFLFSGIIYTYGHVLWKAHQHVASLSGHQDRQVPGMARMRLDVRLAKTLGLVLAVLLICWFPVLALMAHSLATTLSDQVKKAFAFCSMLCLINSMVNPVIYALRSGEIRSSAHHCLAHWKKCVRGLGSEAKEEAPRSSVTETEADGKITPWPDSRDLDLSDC

| Compound | Ratio IC50 (HEK293) | IC50 (Cannabinoid receptor 2) | IC50 (Cannabinoid receptor 1 [1]) | EC50 (Cannabinoid receptor 1 [2]) | Activity (Cannabinoid receptor 1 [3]) | IC50 (Cannabinoid receptor 1 [4]) | Activity (Mus musculus) | Activity (Cannabinoid receptor 1 [5]) |
| --- | --- | --- | --- | --- | --- | --- | --- | --- |
| Cc1c(C(=O)NN2CCCCCC2)nn(-c2ccc(Cl)cc2Cl)c1-c1ccc(Cl)s1 | 14 | 2160 nM | 159 nM | 134 nM |  |  |  |  |
| CCCC#Cc1ccc(-c2c(C)c(C(=O)NN3CCCCC3)nn2-c2ccc(Cl)cc2Cl)s1 | 159 | 2210 nM | 13.9 nM | 28.7 nM | Active | 1.2 nM |  |  |
| Cc1c(C(=O)NN2CCCCC2)nn(-c2ccc(Cl)cc2Cl)c1-c1ccc(Cl)cc1 |  |  |  |  |  |  | Active |  |
| Cc1c(C(=O)NN2CCCCC2)nn(-c2ccc(Cl)cc2Cl)c1-c1ccc(C#CCOC(C)C)s1 | 76 | 1760 nM | 23.2 nM | 57.4 nM |  |  |  | Active |
| Cc1c(C(=O)NN2CCCCC2)nn(-c2ccc(Cl)cc2Cl)c1-c1ccc(C#CC2CC2)s1 | 70 | 4230 nM | 60.4 nM | 72.9 nM | Active |  |  |  |
| CCCCC#Cc1ccc(-c2c(C)c(C(=O)NCCCCCC)nn2-c2ccc(Cl)cc2Cl)s1 | 100 | 261 nM | 2.6 nM | 74 nM |  |  |  | Active |
| Cc1c(C(=O)NN2CCCCCC2)nn(-c2ccc(Cl)cc2Cl)c1-c1ccc(Br)s1 | 17 | 705 nM | 40.7 nM | 64.9 nM |  |  |  |  |
| CCCCC#Cc1ccc(-c2c(C)c(C(=O)NCCCC)nn2-c2ccc(Cl)cc2Cl)s1 | 213 | 638 nM | 3 nM | 29.8 nM |  |  |  | Active |
| CCC/C=C/c1ccc(-c2c(C)c(C(=O)NN3CCCCC3)nn2-c2ccc(Cl)cc2Cl)s1 | 178 | 3840 nM | 21.6 nM | 146 nM |  |  |  |  |
| CCCCCc1ccc(-c2c(C)c(C(=O)NN3CCCCC3)nn2-c2ccc(Cl)cc2Cl)s1 | 109 | 6350 nM | 57.9 nM | 75.9 nM |  |  |  |  |
| CCc1c(C(=O)NN2CCCCC2)nn(-c2ccc(Cl)cc2Cl)c1-c1ccc(C#CCC(C)C)s1 | 236 | 1210 nM | 5.1 nM | 23 nM |  |  |  |  |
| COCC#Cc1ccc(-c2c(C)c(C(=O)NN3CCCCC3)nn2-c2ccc(Cl)cc2Cl)s1 | 42 | 2740 nM | 65.3 nM | 143 nM |  |  |  |  |
| CCCCC#Cc1ccc(-c2c(C)c(C(=O)NN3CCCCCC3)nn2-c2ccc(Cl)cc2Cl)s1 | 332 | 564 nM | 1.7 nM | 4.8 nM |  |  |  | Active |
| Cc1c(C(=O)NN2CC3CCCC3C2)nn(-c2ccc(Cl)cc2Cl)c1-c1ccc(C#CC2CCCC2)s1 (stereo unspecified) | 86 | 902 nM | 10.5 nM | 99.3 nM |  |  |  | Active |
| Cc1c(C(=O)NN2CCCCC2)nn(-c2ccc(Cl)cc2Cl)c1-c1ccc(C#CCC(C)C)s1 | 168 | 386 nM | 2.3 nM | 12.1 nM |  | 1.2 nM |  | Active |
| Cc1c(C(=O)NN2CC3CCCC3C2)nn(-c2ccc(Cl)cc2Cl)c1-c1ccc(C#CC(C)(C)C)s1 (stereo unspecified) | 53 | 1160 nM | 21.7 nM | 158 nM |  |  |  | Active |
| CCC#Cc1ccc(-c2c(C)c(C(=O)NN3CCCCCC3)nn2-c2ccc(Cl)cc2Cl)s1 | 44 | 1060 nM | 24.2 nM | 36.4 nM | Active |  |  |  |
| Cc1c(C(=O)NN2CCCCC2)nn(-c2ccc(Cl)cc2Cl)c1-c1ccc(C#CC2CCCCC2)s1 | 216 | 1580 nM | 7.3 nM | 442 nM |  |  |  | Active |
| Cc1c(C(=O)NN2CCCCC2)nn(-c2ccc(Cl)cc2Cl)c1-c1ccc(Br)s1 | 25 | 895 nM | 35.8 nM | 68.2 nM |  |  |  |  |
| CCCCC#Cc1ccc(-c2c(C)c(C(=O)NC3CCCCC3)nn2-c2ccc(Cl)cc2Cl)s1 | 133 | 278 nM | 2.1 nM | 43.9 nM |  |  |  | Active |
| CCCC#Cc1ccc(-c2c(C)c(C(=O)NN3CC4CCCC4C3)nn2-c2ccc(Cl)cc2Cl)s1 (stereo unspecified) | 99 | 785 nM | 7.9 nM | 19.2 nM | Active |  |  |  |
